Test results: US20260216170A1, “TETRAHYDROISOQUINOLINE HETEROBIFUNCTIONAL BCL-XL DEGRADERS” (Treeline Biosciences, Inc., priority 2023, published 2026)

Biological target: T1, Human BCL-XL protein (N-terminal HiBiT tagged BCL-XL expressed in HT1080 cells) (Homo sapiens, UniProt Q07817)
T1 construct: expressed in transfected cells; host or cells: HT-1080 (ATCC CCL-121), stably transduced with lentivirus pLV-UBC-N-HiBiT-BCL-XL-PGK-puro and selected with puromycin
Experiment: HiBiT Based Degradation Assay
Assay type: cell-based
Conditions: 24 hours incubation; for DC50: BCL-XL degradation, HT1080 cells expressing N-HiBiT-BCL-XL, normalized with DMSO control, geometric mean for multiple data points, read-out: EC50 (24 h); for Ymin (24 h): bottom of BCL-XL degradation curve (remaining HiBiT-BCL-XL signal vs DMSO control), HT1080 cells
Source text: HiBiT Based Degradation Assay
Human BCL-XL protein coding open reading frame fused with N-terminal HiBiT coding sequence (N-HiBiT-BCL-XL) was synthesized from Integrated DNA Technologies (IDT). Next, N-HiBiT-BCL-XL sequence was cloned into pLV-UBC-PGK-Puro, a lentivirus plasmid purchased from Vectorbuilder, to generate pLV-UBC-N-HiBiT-BCL-XL-PGK-puro. Lentiviral particles were generated from Lenti-X™ 293T cells (Clontech) by co-transfection of pLV-UBC-N-HiBiT-BCL-XL-PGK-puro plasmids and lentiviral packaging plasmid mix (Cellecta). HT-1080 [HT1080](ATCC CCL-121™) cells were infected with the lentivirus, and HT1080 cells stably integrated with the lentiviral vector were established by incubation with 1 μg/mL puromycin (Thermofisher). HT1080 cells expressing N-terminal HiBiT tagged BCL-XL were dispensed into 384-well plates pre-spotted with compounds at varying concentrations. Three thousand cells were seeded into each well in 40 μL of RPMI 1640 media. After 24 hours of incubation at 37° C. with 5% CO2, 30 μL of the NANO-GLO® HiBiT Lytic Detection System working solution (Promega) was added to each well and incubated at room temperature for 30 min. After incubation, luminescence was read on a PHERAstar FSX Plate Reader (BMG). BCL-XL degradation at each indicated concentration was normalized with DMSO control. The BCL-XL degradation curves were plotted using a four-parameter logistic model. For compounds displaying hook effects, curve fitting was performed using bottom point of hook curves (i.e., the point of Ymin) as bottom plateau to calculate EC50. For compounds with multiple data points, the geometric mean is presented.

T1 sequence (Q07817 whole entry): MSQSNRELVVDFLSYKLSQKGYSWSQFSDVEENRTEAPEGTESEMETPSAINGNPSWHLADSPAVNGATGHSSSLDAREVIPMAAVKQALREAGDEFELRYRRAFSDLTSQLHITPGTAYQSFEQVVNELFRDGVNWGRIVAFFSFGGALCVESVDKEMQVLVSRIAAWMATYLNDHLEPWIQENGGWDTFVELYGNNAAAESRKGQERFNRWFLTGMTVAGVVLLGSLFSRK

DC50 [nM]	Ymin (24 h)	Structure (SMILES)
< 10	B (30% ≤ Ymin < 50%)	COc1c(NC(=O)CN2CCC3(CC2)CC(Oc2cccc(-c4ccc(N5CCc6ccnc(C(=O)Nc7nc8ccccc8s7)c6C5)nc4C(=O)O)c2C(F)(F)F)C3)ccc2c(C3CCC(=O)NC3=O)nn(C)c12 (stereo not shown) [Compound 165, 6-(8-(benzo[d]thiazol-2-ylcarbamoyl)-3,4-dihydro-2,7-naphthyridin-2(1H)-yl)-3-(3-((7-(2-((3-(2,6-dioxopiperidin-3-yl)-7-methoxy-1-methyl-1H-indazol-6-yl)amino)-2-oxoethyl)-7-azaspiro[3.5]nonan-2-yl)oxy)-2-(trifluoromethyl)phenyl)picolinic acid]
< 10	A (Ymin < 30%)	Cc1c(OCC2CC3(CCN(CCNc4ccc5c(C6CCC(=O)NC6=O)nn(C)c5c4)CC3)C2)cccc1-c1ccc(N2CCc3cccc(C(=O)Nc4nc5ccccc5s4)c3C2)nc1C(=O)O (stereo not shown) [Compound 153, 6-[8-(1,3-benzothiazol-2-ylcarbamoyl)-3,4-dihydro-1H-isoquinolin-2-yl]-3-[3-[[7-[2-[[3-(2,6-dioxo-3-piperidyl)-1-methyl-indazol-6-yl]amino]ethyl]-7-azaspiro[3.5]nonan-2-yl]methoxy]-2-methyl-phenyl]pyridine-2-carboxylic acid]
< 10	A (Ymin < 30%)	Cc1cc(OC[C@@H]2C[C@@H]2C2CCN(CC(=O)Nc3ccc4c(C5CCC(=O)NC5=O)nn(C)c4c3)CC2)ccc1-c1ccc(N2CCc3cccc(C(=O)Nc4nc5ccccc5s4)c3C2)nc1C(=O)O (single isomer, unassigned) [Compound 1003d]
< 10	A (Ymin < 30%)	Cc1cc(OCC2CC3(CCN(CC(=O)Nc4ccc5c(C6CCC(=O)NC6=O)nn(C)c5c4)CC3)C2)ccc1-c1ccc(N2CCc3ccnc(C(=O)Nc4nc5ccccc5s4)c3C2)nc1C(=O)O (stereo not shown) [Compound 135, 6-[8-(1,3-benzothiazol-2-ylcarbamoyl)-3,4-dihydro-1H-2,7-naphthyridin-2-yl]-3-[4-[[7-[2-[[3-(2,6-dioxo-3-piperidyl)-1-methyl-indazol-6-yl]amino]-2-oxo-ethyl]-7-azaspiro[3.5]nonan-2-yl]methoxy]-2-methyl-phenyl]pyridine-2-carboxylic acid]
10 to 100	B (30% ≤ Ymin < 50%)	C[C@H](CCC1CCN(CC(=O)Nc2ccc3c(C4CCC(=O)NC4=O)nn(C)c3c2)CC1)Oc1ccc(-c2ccc(N3CCc4cccc(C(=O)Nc5nc6ccccc6s5)c4C3)nc2C(=O)O)c(C(F)(F)F)c1 (single isomer, unassigned) [Compound 138b]
10 to 100	B (30% ≤ Ymin < 50%)	COc1c(NC(=O)CN2CCC3(CC2)CC(Oc2cccc(-c4ccc(N5CCc6cccc(C(=O)Nc7nc8ccccc8s7)c6C5)nc4C(=O)O)c2C)C3)ccc2c(C3CCC(=O)NC3=O)nn(C)c12 (stereo not shown) [Compound 164, 6-(8-(benzo[d]thiazol-2-ylcarbamoyl)-3,4-dihydroisoquinolin-2(1H)-yl)-3-(3-((7-(2-((3-(2,6-dioxopiperidin-3-yl)-7-methoxy-1-methyl-1H-indazol-6-yl)amino)-2-oxoethyl)-7-azaspiro[3.5]nonan-2-yl)oxy)-2-methylphenyl)picolinic acid]
10 to 100	B (30% ≤ Ymin < 50%)	COc1c(NC(=O)CN2CC[C@@H](CCCOc3cccc(-c4ccc(N5CCc6cccc(C(=O)Nc7nc8ccccc8s7)c6C5)nc4C(=O)O)c3C)C[C@H]2C)ccc2c(C3CCC(=O)NC3=O)nn(C)c12 (stereo partly shown) [Compound 208d]
< 10	B (30% ≤ Ymin < 50%)	Cc1c(OC2CCC3(CC2)CCN(CC(=O)Nc2ccc4c(C5CCC(=O)NC5=O)nn(C)c4c2)CC3)cccc1-c1ccc(N2CCc3cccc(C(=O)Nc4nc5ccccc5s4)c3C2)nc1C(=O)O (stereo not shown) [Compound 119]
< 10	B (30% ≤ Ymin < 50%)	COc1c(NC(=O)CN2CCC3(CC2)CC(Oc2cccc(-c4ccc(N5CCc6ccnc(C(=O)Nc7nc8ccccc8s7)c6C5)nc4C(=O)O)c2C)C3)ccc2c(C3CCC(=O)NC3=O)nn(C)c12 (stereo not shown) [Compound 184, 6-[8-(1,3-benzothiazol-2-ylcarbamoyl)-3,4-dihydro-1H-2,7-naphthyridin-2-yl]-3-[3-[[7-[2-[[3-(2,6-dioxo-3-piperidyl)-7-methoxy-1-methyl-indazol-6-yl]amino]-2-oxo-ethyl]-7-azaspiro[3.5]nonan-2-yl]oxy]-2-methyl-phenyl]pyridine-2-carboxylic acid]
10 to 100	A (Ymin < 30%)	COc1c(NC(=O)CN2CC[C@H](CCCOc3ccc(-c4ccc(N5CCc6cccc(C(=O)Nc7nc8ccccc8s7)c6C5)nc4C(=O)O)c(C)c3)C[C@@H]2C)ccc2c(C3CCC(=O)NC3=O)nn(C)c12 (stereo partly shown) [Compound 210b]
< 10	B (30% ≤ Ymin < 50%)	Cc1c(OC2CC3(CCN(CC(=O)Nc4ccc5c(C6CCC(=O)NC6=O)nn(C)c5c4F)CC3)C2)cccc1-c1ccc(N2CCc3cccc(C(=O)Nc4nc5ccccc5s4)c3C2)nc1C(=O)O (stereo not shown) [Compound 190, 6-(8-(benzo[d]thiazol-2-ylcarbamoyl)-3,4-dihydroisoquinolin-2(1H)-yl)-3-(3-((7-(2-((3-(2,6-dioxopiperidin-3-yl)-7-fluoro-1-methyl-1H-indazol-6-yl)amino)-2-oxoethyl)-7-azaspiro[3.5]nonan-2-yl)oxy)-2-methylphenyl)picolinic acid]
10 to 100	B (30% ≤ Ymin < 50%)	C[C@H]1C[C@@H](CCCOc2cccc(-c3ccc(N4CCc5cccc(C(=O)Nc6nc7ccccc7s6)c5C4)nc3C(=O)O)c2C(F)(F)F)CCN1CC(=O)Nc1ccc2c(C3CCC(=O)NC3=O)nn(C)c2c1 (stereo partly shown) [Compound 215b]
10 to 100	B (30% ≤ Ymin < 50%)	Cc1cc(O[C@@H](C)CCC2CCN(CC(=O)Nc3ccc4c(C5CCC(=O)NC5=O)nn(C)c4c3F)CC2)ccc1-c1ccc(N2CCc3cccc(C(=O)Nc4nc5ccccc5s4)c3C2)nc1C(=O)O (single isomer, unassigned) [Compound 224a]
10 to 100	B (30% ≤ Ymin < 50%)	COc1c(NC(=O)CN2CCC(CCCOc3cccc(-c4ccc(N5CCc6ccnc(C(=O)Nc7nc8ccccc8s7)c6C5)nc4C(=O)O)c3C(F)(F)F)CC2)ccc2c(C3CCC(=O)NC3=O)nn(C)c12 (stereo not shown) [Compound 180, 6-[8-(1,3-benzothiazol-2-ylcarbamoyl)-3,4-dihydro-1H-2,7-naphthyridin-2-yl]-3-[3-[3-[1-[2-[[3-(2,6-dioxo-3-piperidyl)-7-methoxy-1-methyl-indazol-6-yl]amino]-2-oxo-ethyl]-4-piperidyl]propoxy]-2-(trifluoromethyl)phenyl]pyridine-2-carboxylic acid]
10 to 100	B (30% ≤ Ymin < 50%)	Cn1nc(C2CCC(=O)NC2=O)c2ccc(NC(=O)CN3CCC(CCCOc4ccc(-c5ccc(N6CCc7cccc(C(=O)Nc8nc9ccccc9s8)c7C6)nc5C(=O)O)c(C(F)(F)F)c4)CC3)c(F)c21 (stereo not shown) [Compound 183]
< 10	A (Ymin < 30%)	Cc1cc(OC[C@@H]2C[C@@H]2CC2CCN(CC(=O)Nc3ccc4c(C5CCC(=O)NC5=O)nn(C)c4c3)CC2)ccc1-c1ccc(N2CCc3cccc(C(=O)Nc4nc5ccccc5s4)c3C2)nc1C(=O)O (single isomer, unassigned) [Compound 1002d]
100 to 1000	B (30% ≤ Ymin < 50%)	COc1cc2c(C3CCC(=O)NC3=O)nn(C)c2cc1NC(=O)CN1CCC(CCCOc2ccc(-c3ccc(N4CCc5cccc(C(=O)Nc6nc7ccccc7s6)c5C4)nc3C(=O)O)c(C)c2)CC1 (stereo not shown) [Compound 103, 6-[8-(1,3-benzothiazol-2-ylcarbamoyl)-3,4-dihydro-1H-isoquinolin-2-yl]-3-[4-[3-[1-[2-[[3-(2,6-dioxo-3-piperidyl)-5-methoxy-1-methyl-indazol-6-yl]amino]-2-oxo-ethyl]-4-piperidyl]propoxy]-2-methyl-phenyl]pyridine-2-carboxylic acid]
< 10	B (30% ≤ Ymin < 50%)	Cc1c(OC[C@@H]2C[C@@H]2CC2CCN(CC(=O)Nc3ccc4c(C5CCC(=O)NC5=O)nn(C)c4c3)CC2)cccc1-c1ccc(N2CCc3cccc(C(=O)Nc4nc5ccccc5s4)c3C2)nc1C(=O)O (single isomer, unassigned) [Compound 1004c]
< 10	A (Ymin < 30%)	C[C@@H]1C[C@H](CCCOc2ccc(-c3ccc(N4CCc5cccc(C(=O)Nc6nc7ccccc7s6)c5C4)nc3C(=O)O)c(C(F)(F)F)c2)CCN1CC(=O)Nc1ccc2c(C3CCC(=O)NC3=O)nn(C)c2c1 (stereo partly shown) [Compound 209c]
10 to 100	A (Ymin < 30%)	Cc1cc(OC[C@@H](C)CC2CCN(CC(=O)Nc3ccc4c(C5CCC(=O)NC5=O)nn(C)c4c3)CC2)ccc1-c1ccc(N2CCc3ccnc(C(=O)Nc4nc5ccccc5s4)c3C2)nc1C(=O)O (single isomer, unassigned) [Compound 140b]
